Measured values reported in article PMC11345829, “Discovery of Potent Isoquinolinequinone N-Oxides to Overcome Cancer Multidrug Resistance” (Journal of Medicinal Chemistry, 2024).
Read-outs that look alike come from different tables or passages of the source.

Columns and labels:
[1] = test system: NCI60 tumor cell line panel; experiment: NCI60 one-dose screen (10 μM), mean growth; type: cell-based, human; conditions: for activity at 10 µM: Homo sapiens; for activity at 10 µM / mean growth (%, 10 μM): 48 h, one dose 10 μM, mean cell growth of 60 tumor cell lines
Method: (§1) S2.1 NCI Screening Assay Experimental details
(§2) NCI Screening Assay Experimental: Cancer cell growth assays (NCI60 screening) 5,6 One-dose study: Tested compounds were initially solubilised in DMSO, diluted into RPMI 1640 and 5% fetal bovine serum/L-glutamine, and added to 96-well plates containing cell lines previously cultured for 24 h. After 48 h incubation, the media were removed, and the cells were fixed and stained with sulforhodamine B to determine overall percent growth/ total protein content. Unbound dye was removed with five washes of 1% acetic acid, and the plates were allowed to air dry. The dye was then resolubilised in Tris buffer, and the colorimetric absorbance was measured (515 nm). Growth inhibition was measured relative to the response generated from proliferating cells cultured under identical conditions for 48 h. […]

[2] = test system: UACC-62; experiment: NCI60 five-dose GI50; type: cell-based; conditions: Homo sapiens, melanoma
From the text: (§3) The concentration−response curve generated enables the determination of three criteria, GI50 (drug concentration at which 50% of cell growth is inhibited), total growth inhibition (TGI) and LC50 (drug concentration at which 50% of tumor cells are killed) which can be used to compare effectiveness against any compound tested in the screen since its inception.
as §1
(§4) NCI Screening Assay Experimental: Cancer cell growth assays (NCI60 screening) 5,6 One-dose study: Tested compounds were initially solubilised in DMSO, diluted into RPMI 1640 and 5% fetal bovine serum/L-glutamine, and added to 96-well plates containing cell lines previously cultured for 24 h. After 48 h incubation, the media were removed, and the cells were fixed and stained with sulforhodamine B to determine overall percent growth/ total protein content. Unbound dye was removed with five washes of 1% acetic acid, and the plates were allowed to air dry. The dye was then resolubilised in Tris buffer, and the colorimetric absorbance was measured (515 nm). Growth inhibition was measured relative to the response generated from proliferating cells cultured under identical conditions for 48 h. Data from one-dose experiments pertains to the percentage growth at […]
(§5) Five-dose study: Serial 5 × 10-fold dilution from an initial DMSO stock solution was performed, prior to incubation at each individual concentration (10 nM, 100 nM, 1 μM, 10 μM and 100 μM). Using seven absorbance measurements (time zero (Tz), control growth (C), and test growth in the presence of drug at the five concentration levels (Ti)), the percentage growth was calculated at each of the drug concentrations levels. Percentage growth inhibition was calculated as: [(Ti − Tz)/(C − Tz)] × 100 for concentrations for which Ti ≥ Tz, [(Ti − Tz)/Tz] × 100 for concentrations for which Ti < Tz. Three dose response parameters were calculated for each experimental agent. […]
(§6) was calculated from [(Ti − Tz)/(C − Tz)] × 100 = 50, which is the drug concentration resulting in a 50% reduction in the net protein increase (as measured by sulforhodamine B staining) in control cells during the drug incubation. The drug concentration resulting in total growth inhibition (TGI) was calculated from Ti = Tz. The LC50 (concentration of drug resulting in a 50% reduction in the measured protein at the end of the drug treatment as compared to that at the beginning) indicating a net loss of cells following treatment was calculated from [(Ti − Tz)/Tz] × 100 = −50. Values were calculated for each of these three parameters if the level of activity was reached; however, if the effect was not reached or was exceeded, the value for that parameter was expressed as greater or less than the maximum or minimum concentration tested.

[3] = test system: OVCAR-3; experiment: NCI60 five-dose GI50; type: cell-based; conditions: Homo sapiens, ovarian
From the text: as §3, §1, §4, §5, §6

[4] = test system: NCI-ADR/RES; experiment: NCI60 five-dose GI50; type: cell-based; conditions: Homo sapiens, MDR ovarian
From the text: as §3, §1, §4, §5, §6

[5] = test system: LOX-IMVI; experiment: NCI60 five-dose GI50; type: cell-based; conditions: Homo sapiens, melanoma
From the text: as §3, §1, §4, §5, §6

[6] = test system: COLO-205; experiment: NCI60 five-dose GI50; type: cell-based; conditions: Homo sapiens, colon
From the text: as §3, §1, §4, §5, §6

[7] = test system: MCF-7; experiment: NCI60 five-dose GI50; type: cell-based; conditions: Homo sapiens, MCF7, breast
From the text: as §3, §1, §4, §5, §6

[8] = test system: K-562; experiment: NCI60 five-dose GI50; type: cell-based; conditions: Homo sapiens, K562, five dose
From the text: as §3, §1, §4, §5, §6

[9] = test system: OVCAR-8; experiment: NCI60 five-dose GI50; type: cell-based; conditions: Homo sapiens, ovarian
From the text: as §3, §1
as §2, with “nm).” for “nm). Growth inhibition was measured relative to the response generated from proliferating cells cultured under identical conditions for 48 h.”
as §5, §6

[10] = test system: NCI60 tumor cell line panel; experiment: NCI60 five-dose screen, mean over panel; type: cell-based, human; conditions: five dose
From the text: as §3, §1, §4, §5, §6

[11] = Homo sapiens, across 57-60 cell lines (number given per compound), read-out: Mean of GI50 as Log 10 Concentration (SD) (converted)
[12] = mean over 52 human tumor cell lines common to all analogues, read-out: mean GI50

SMILES | activity at 10 µM [1] | GI50 [2] | GI50 [3] | GI50 [4] | GI50 [5] | GI50 [6] | GI50 [7] | GI50 ([8]; leukemia) | GI50 [9] | GI50 [10, 11] | GI50 [10, 12] | mean growth (%, 10 μM) [1] | GI50 [8] | one-dose screen outcome ([1]; 10 μM)
COC(=O)c1c2c(c(C)[n+]([O-])c1C)C(=O)C(NCc1cccc(Cl)c1)=CC2=O [Compound 12] | 12% | 1240 nM | 322 nM | 1640 nM | 1760 nM | 388 nM | 1100 nM | 2170 nM | 1520 nM | 1340 nM | 1480 nM | – | – | –
COC(=O)c1c2c(c(C)[n+]([O-])c1C)C(=O)C=C(NCc1ccc(Cl)cc1)C2=O [Compound 11] | -32% | 55 nM | 208 nM | 267 nM | 39 nM | 238 nM | 267 nM | 58 nM | 292 nM | 412 nM | 550 nM | -32% | < 150 nM | –
COC(=O)c1c2c(c(C)[n+]([O-])c1C)C(=O)C=C(NCc1ccc(F)c(Cl)c1)C2=O [Compound 19] | -47% | 41 nM | 199 nM | 321 nM | 31 nM | 211 nM | 229 nM | 51 nM | 249 nM | 290 nM | 560 nM | -47% | < 150 nM | –
COC(=O)c1c2c(c(C)[n+]([O-])c1C)C(=O)C=C(NCc1ccc(F)c(F)c1)C2=O [Compound 17] | -49% | 68 nM | 258 nM | 345 nM | 64 nM | 260 nM | 290 nM | 113 nM | 299 nM | 421 nM | 580 nM | -49% | < 150 nM | –
COC(=O)c1c2c(c(C)[n+]([O-])c1C)C(=O)C(NCc1cccc(OC)c1)=CC2=O [Compound 8] | 23% | 1700 nM | 512 nM | 2360 nM | 2360 nM | 1100 nM | 1650 nM | 2980 nM | 2520 nM | 2210 nM | 2290 nM | – | – | –
COC(=O)c1c2c(c(C)[n+]([O-])c1C)C(=O)C=C(NCc1ccc(Br)cc1)C2=O [Compound 15] | -50% | 46 nM | 273 nM | 439 nM | 84 nM | 313 nM | 289 nM | 47 nM | 465 nM | 515 nM | 780 nM | -50% | < 150 nM | –
COC(=O)c1c2c(c(C)[n+]([O-])c1C)C(=O)C(NCc1ccc(F)c(F)c1)=CC2=O [Compound 16] | 11% | 1530 nM | 333 nM | 2300 nM | 1980 nM | 673 nM | 1480 nM | 2230 nM | 1960 nM | 1780 nM | 1910 nM | – | – | –
COC(=O)c1c2c(c(C)[n+]([O-])c1C)C(=O)C(NCc1ccc(Cl)cc1)=CC2=O [Compound 10] | 57% | – | – | – | – | – | – | – | – | – | – | – | – | did not achieve sufficient growth inhibition
COC(=O)c1c2c(c(C)[n+]([O-])c1C)C(=O)C=C(NCc1cccc(OC)c1)C2=O [Compound 9] | -52% | 306 nM | 259 nM | 441 nM | 302 nM | 252 nM | 286 nM | 416 nM | 339 nM | 607 nM | 740 nM | -52% | – | –
COC(=O)c1c2c(c(C)[n+]([O-])c1C)C(=O)C(NCc1ccc(OC)cc1)=CC2=O [Compound 6] | 19% | 1720 nM | 315 nM | 2420 nM | 2410 nM | 839 nM | 1410 nM | 2670 nM | 2780 nM | 2040 nM | 2120 nM | – | – | –
COC(=O)c1c2c(c(C)[n+]([O-])c1C)C(=O)C=C(NCc1cccc(Cl)c1)C2=O [Compound 13] | -42% | 144 nM | 243 nM | 352 nM | 94 nM | 263 nM | 270 nM | 109 nM | 297 nM | 405 nM | 620 nM | -42% | < 150 nM | –
COC(=O)c1c2c(c(C)[n+]([O-])c1C)C(=O)C(NCc1ccc(F)c(Cl)c1)=CC2=O [Compound 18] | 4% | 1380 nM | 306 nM | 2080 nM | 2340 nM | 588 nM | 1320 nM | 2670 nM | 2380 nM | 1800 nM | 1510 nM | – | – | –
COC(=O)c1c2c(c(C)[n+]([O-])c1C)C(=O)C(NCc1ccc(Br)cc1)=CC2=O [Compound 14] | 18% | 1170 nM | 301 nM | 1970 nM | 1670 nM | 659 nM | 1330 nM | 2380 nM | 1830 nM | 1640 nM | 1800 nM | – | – | –
COC(=O)c1c2c(c(C)[n+]([O-])c1C)C(=O)C=C(NCc1ccc(OC)cc1)C2=O [Compound 7] | -34% | 374 nM | 284 nM | 419 nM | 408 nM | 325 nM | 300 nM | 491 nM | 452 nM | 1530 nM | 900 nM | -34% | – | –
